Source: patent US20090275546A1, “Diagnostic tests and personalized treatment regimes for cancer stem cells” (Istituto Superiore di Sanita, priority 2008, published 2009)
Entries after “also recorded” stand apart in the source; their conditions may differ. Read-outs that look alike come from different tables or passages of the source.

Experiments:
[1] = molecular target: myosin light chain kinase; settings: cited from earlier work
[2] = test system: colon CSCs; assay: kinase inhibitor library screening, ATP-based viability assay; format: cell-based, human
Method: A flowchart showing the steps of the screenings performed on colon CSCs, is depicted in FIG. 5. Before treatment with inhibitors, colon CSCs undergo trypsin/EDTA dissociation in order to be consistently plated into 96-well microtiter plates. After 48 h cells recover from dissociation and form spheroids again. Inhibitors are subsequently added to the cells as single agents while ATP-based-viability assay are performed after another 48 h.
Viability controls are cells treated with DMSO whereas staurosporin-treated cells are positive controls of death.
(§1) Cells were incubated at 37° C. for a variable time, depending on the size and on the sensitivity of each colon CSC line, until single cell suspension was achieved. Cells were then washed once in fresh medium and plated into 96-well microtiter plates in 80 μL volume. The number of cells plated ranged from 2000 to 5000 per well. Drugs were added after 48 h by dispensing each well with 20 μL of medium containing 5× concentrated compounds. We purchased the kinase inhibitor library from Enzo Life Sciences International, Inc (formerly BIOMOL International, L.P., PA, USA) and used each single inhibitor at a final […] concentration. As a control DMSO was added to cells at a final concentration of 0.1% (v/v).
Measure of cell viability was performed using CelltiterGlo® luminescent assay (Promega Corporation, Madison, Wis., USA) and luminescence was recorded on Beckman Coulter DTX880 multimode reader (Beckman Coulter Inc., Fullerton, Calif., USA) with an integration time of 100 ms.
Statistical analysis and IC50 calculations were performed with the aid of Microsoft Excel (Microsoft Corporation, www.microsoft.com) and GraphPad Prism version 4.00 for Windows, (GraphPad Software, San Diego, Calif., www.graphpad.com) while hierarchical clustering was performed with TMev v4.3.01 [10]. Normalized viability represents the signal intensity of each replicate divided by the average of single plate DMSO controls (in percent). Dunnett's post-test was performed on at least three independent experiments for each colon CSC line to calculate statistical significance versus DMSO controls. P values were subsequently clustered by using Euclidean distance as metric and complete linkage as a linkage method.

[3] = molecular target: protein kinase G; settings: cited from earlier work
[4] = test system: PKCe, PKCh, and PKCz; settings: reduced inhibitory activity; cited from earlier work
[5] = test system: PKCa, PKCb, and PKCg isoforms; settings: cited from earlier work
[6] = molecular target: CaM kinase III (Homo sapiens, UniProt O00418); settings: cited from earlier work
Sequence of CaM kinase III (O00418 whole entry): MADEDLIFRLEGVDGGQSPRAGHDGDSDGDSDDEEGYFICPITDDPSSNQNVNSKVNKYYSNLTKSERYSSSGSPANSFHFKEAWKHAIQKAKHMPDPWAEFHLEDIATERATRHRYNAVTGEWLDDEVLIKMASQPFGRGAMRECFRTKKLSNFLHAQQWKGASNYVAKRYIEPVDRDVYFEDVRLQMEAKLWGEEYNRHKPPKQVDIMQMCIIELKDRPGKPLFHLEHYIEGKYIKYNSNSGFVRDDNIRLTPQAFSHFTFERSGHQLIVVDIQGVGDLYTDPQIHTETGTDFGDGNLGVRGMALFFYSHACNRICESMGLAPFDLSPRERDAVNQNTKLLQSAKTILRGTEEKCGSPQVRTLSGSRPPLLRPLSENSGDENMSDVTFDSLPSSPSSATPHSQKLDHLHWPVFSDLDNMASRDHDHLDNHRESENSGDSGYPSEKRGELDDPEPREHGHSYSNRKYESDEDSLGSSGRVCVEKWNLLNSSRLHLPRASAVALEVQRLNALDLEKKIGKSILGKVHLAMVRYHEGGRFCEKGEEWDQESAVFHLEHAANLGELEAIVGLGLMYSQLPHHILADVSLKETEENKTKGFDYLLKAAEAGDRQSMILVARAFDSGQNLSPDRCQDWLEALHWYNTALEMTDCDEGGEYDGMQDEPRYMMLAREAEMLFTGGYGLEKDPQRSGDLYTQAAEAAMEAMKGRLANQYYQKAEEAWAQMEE

[7] = test system: TNF-a-inducible phosphorylation of IkBa; settings: cited from earlier work
[8] = test system: colon cancer cell lines; settings: commercial (non-stem) cell lines, colon and lung; cited from earlier work
[9] = test system: CTSC#85 (TRAIL-resistant colon CSC line); assay: drug combination experiment; format: cell-based, human; settings: 24 h, TRAIL IC50/17-AAG IC50
Method: Normalized viability at 24 h is plotted against drug combinations. […] Recombinant human Killer TRAIL was purchased from Alexis (San Diego, Calif., USA) while Geldanamycin, 17-AAG and 17-DMAG were purchased from Calbiochem (Nottingham, UK). All agents were diluted into fresh medium at the specified concentrations. Measure of cell viability was performed using CelltiterGlo® luminescent assay (Promega Corporation, Madison, Wis., USA) and luminescence was recorded on Beckman Coulter DTX880 multimode reader (Beckman Coulter Inc., Fullerton, Calif., USA) with an integration time of 100 ms.

[10] = molecular target: casein kinase I and PKA, insulin receptor kinase fragment; settings: range over casein kinase I; cited from earlier work
[11] = molecular target: human PDGF a-receptors (Homo sapiens, UniProt P16234); settings: cited from earlier work
[12] = molecular target: human PDGF b-receptors (Homo sapiens, UniProt P09619); settings: cited from earlier work
Sequence of human PDGF b-receptors (P09619 33-1106): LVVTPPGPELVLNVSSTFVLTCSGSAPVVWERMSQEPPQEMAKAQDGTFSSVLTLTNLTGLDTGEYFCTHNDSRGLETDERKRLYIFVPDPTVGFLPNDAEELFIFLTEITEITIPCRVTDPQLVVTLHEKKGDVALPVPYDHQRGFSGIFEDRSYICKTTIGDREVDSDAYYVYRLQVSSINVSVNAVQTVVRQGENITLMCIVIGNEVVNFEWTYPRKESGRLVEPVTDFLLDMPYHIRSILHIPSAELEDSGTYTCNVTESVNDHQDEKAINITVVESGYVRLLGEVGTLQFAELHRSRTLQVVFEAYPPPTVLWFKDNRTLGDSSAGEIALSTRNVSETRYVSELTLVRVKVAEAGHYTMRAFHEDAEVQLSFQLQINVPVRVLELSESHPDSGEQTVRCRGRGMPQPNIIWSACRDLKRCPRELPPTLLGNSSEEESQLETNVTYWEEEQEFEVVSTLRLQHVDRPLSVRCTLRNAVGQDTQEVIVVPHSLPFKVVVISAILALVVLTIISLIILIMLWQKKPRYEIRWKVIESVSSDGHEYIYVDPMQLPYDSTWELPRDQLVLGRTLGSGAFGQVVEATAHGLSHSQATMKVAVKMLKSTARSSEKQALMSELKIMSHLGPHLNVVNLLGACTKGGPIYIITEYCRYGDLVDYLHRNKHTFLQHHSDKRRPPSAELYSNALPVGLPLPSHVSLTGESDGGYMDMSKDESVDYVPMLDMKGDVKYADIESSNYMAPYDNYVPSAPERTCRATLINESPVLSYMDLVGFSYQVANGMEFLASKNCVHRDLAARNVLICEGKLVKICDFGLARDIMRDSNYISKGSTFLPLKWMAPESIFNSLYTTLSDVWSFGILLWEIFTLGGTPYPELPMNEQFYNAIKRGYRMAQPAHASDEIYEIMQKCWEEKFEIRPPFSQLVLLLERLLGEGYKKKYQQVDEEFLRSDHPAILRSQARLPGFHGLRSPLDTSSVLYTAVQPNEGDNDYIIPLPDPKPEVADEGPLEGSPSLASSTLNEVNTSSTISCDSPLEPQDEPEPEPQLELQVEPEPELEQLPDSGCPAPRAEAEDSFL

[13] = molecular target: c-kit (Homo sapiens, UniProt P10721); settings: at 5 μM; cited from earlier work
Sequence of c-kit (P10721 26-976): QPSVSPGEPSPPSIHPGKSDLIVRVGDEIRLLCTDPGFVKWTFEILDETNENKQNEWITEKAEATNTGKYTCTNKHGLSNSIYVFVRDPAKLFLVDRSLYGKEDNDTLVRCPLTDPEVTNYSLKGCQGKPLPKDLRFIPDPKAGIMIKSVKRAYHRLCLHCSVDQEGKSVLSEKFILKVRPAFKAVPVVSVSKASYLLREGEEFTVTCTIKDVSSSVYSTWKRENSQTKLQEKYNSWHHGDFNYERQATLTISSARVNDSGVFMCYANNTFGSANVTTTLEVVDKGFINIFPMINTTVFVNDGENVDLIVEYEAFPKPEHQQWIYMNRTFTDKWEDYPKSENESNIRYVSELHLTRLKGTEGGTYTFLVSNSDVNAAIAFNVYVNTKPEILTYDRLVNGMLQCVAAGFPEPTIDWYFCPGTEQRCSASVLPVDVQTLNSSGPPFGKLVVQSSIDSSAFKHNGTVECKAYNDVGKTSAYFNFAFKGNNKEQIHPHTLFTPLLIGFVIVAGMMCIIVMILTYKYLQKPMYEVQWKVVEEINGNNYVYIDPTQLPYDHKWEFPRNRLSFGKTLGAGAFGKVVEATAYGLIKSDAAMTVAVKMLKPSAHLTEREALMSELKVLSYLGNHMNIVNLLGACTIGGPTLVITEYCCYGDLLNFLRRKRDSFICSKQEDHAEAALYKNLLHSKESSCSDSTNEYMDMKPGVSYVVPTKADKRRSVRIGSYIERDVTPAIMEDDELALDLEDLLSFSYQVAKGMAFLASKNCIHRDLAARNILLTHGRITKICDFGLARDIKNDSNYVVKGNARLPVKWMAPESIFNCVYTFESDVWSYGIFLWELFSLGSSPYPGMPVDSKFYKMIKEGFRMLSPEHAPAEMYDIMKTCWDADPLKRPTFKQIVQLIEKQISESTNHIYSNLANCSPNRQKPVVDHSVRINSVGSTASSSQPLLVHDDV

[14] = test system: CTSC#85; assay: dose-response analysis, viability (CelltiterGlo); format: cell-based, human; settings: escalating doses
[15] = molecular target: CaM kinase II; settings: cited from earlier work
[16] = molecular target: protein kinase C (PKC); settings: cited from earlier work
[17] = test system: GSK-3 in primary adipocytes; settings: cited from earlier work
[18] = molecular target: protein kinase A (Homo sapiens, UniProt P17612); settings: cited from earlier work
[19] = molecular target: T1, GSK-3b immunoprecipitates (Homo sapiens, UniProt P49841); settings: cited from earlier work
T1 construct: host or cells: immunoprecipitates
T1 sequence (P49841 whole entry): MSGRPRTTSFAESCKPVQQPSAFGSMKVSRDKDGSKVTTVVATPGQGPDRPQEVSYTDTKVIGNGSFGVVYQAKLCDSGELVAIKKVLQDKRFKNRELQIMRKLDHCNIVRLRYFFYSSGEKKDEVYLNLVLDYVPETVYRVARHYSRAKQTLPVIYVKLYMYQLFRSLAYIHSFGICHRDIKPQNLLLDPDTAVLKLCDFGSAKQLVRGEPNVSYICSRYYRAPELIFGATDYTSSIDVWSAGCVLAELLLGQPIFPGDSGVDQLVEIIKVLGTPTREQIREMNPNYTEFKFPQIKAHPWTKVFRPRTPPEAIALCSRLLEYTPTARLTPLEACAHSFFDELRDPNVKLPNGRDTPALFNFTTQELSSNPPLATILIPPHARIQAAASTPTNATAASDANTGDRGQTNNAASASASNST

[20] = molecular target: rat brain CaM kinase II; settings: cited from earlier work
[21] = molecular target: PKCd (Homo sapiens, UniProt Q05655); settings: cited from earlier work
[22] = molecular target: platelet-derived growth factor receptor tyrosine kinase (Homo sapiens, UniProt P09619); settings: cited from earlier work
Sequence of platelet-derived growth factor receptor tyrosine kinase (P09619 33-1106): as the sequence (P09619 33-1106) above

[23] = molecular target: Cdk5 (Homo sapiens, UniProt Q00535); settings: cited from earlier work
Sequence of Cdk5 (Q00535 whole entry, species assumed): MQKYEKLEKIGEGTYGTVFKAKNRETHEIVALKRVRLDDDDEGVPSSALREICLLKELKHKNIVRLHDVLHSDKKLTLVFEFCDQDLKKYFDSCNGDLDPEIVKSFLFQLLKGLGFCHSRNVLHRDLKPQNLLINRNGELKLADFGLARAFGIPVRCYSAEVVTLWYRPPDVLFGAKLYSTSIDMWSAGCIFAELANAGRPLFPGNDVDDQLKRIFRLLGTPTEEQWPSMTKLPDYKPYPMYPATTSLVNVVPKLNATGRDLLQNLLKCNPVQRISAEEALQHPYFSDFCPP
Sequence of Cdk5 (Q15078 99-307 partner limits assumed, species assumed): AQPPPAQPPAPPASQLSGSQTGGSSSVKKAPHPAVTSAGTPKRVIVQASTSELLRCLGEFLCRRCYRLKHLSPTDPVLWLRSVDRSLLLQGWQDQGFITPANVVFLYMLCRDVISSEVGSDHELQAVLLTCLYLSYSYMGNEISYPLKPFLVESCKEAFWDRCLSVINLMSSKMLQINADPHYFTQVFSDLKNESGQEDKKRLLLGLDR

[24] = test system: many other protein kinases; settings: even at 50 μM; cited from earlier work
[25] = molecular target: SAPK2a/p38a (Homo sapiens, UniProt Q16539); settings: cited from earlier work
[26] = molecular target: SAPK2b/p38b2 (Homo sapiens, UniProt Q15759); settings: cited from earlier work
Sequence of SAPK2b/p38b2 (Q15759 whole entry): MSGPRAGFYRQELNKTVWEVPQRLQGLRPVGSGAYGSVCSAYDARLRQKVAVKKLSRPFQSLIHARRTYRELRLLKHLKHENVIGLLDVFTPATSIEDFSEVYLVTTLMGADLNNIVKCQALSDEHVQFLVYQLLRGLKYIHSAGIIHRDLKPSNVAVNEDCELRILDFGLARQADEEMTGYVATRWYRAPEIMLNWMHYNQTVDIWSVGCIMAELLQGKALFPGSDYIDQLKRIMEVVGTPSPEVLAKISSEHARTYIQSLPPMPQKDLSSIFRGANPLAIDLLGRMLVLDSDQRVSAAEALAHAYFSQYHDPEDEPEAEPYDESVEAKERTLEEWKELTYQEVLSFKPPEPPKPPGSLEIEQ

[27] = molecular target: c-Raf (Homo sapiens, UniProt P04049); settings: selectivity c-Raf over B-Raf; cited from earlier work
Sequence of c-Raf (P04049 whole entry): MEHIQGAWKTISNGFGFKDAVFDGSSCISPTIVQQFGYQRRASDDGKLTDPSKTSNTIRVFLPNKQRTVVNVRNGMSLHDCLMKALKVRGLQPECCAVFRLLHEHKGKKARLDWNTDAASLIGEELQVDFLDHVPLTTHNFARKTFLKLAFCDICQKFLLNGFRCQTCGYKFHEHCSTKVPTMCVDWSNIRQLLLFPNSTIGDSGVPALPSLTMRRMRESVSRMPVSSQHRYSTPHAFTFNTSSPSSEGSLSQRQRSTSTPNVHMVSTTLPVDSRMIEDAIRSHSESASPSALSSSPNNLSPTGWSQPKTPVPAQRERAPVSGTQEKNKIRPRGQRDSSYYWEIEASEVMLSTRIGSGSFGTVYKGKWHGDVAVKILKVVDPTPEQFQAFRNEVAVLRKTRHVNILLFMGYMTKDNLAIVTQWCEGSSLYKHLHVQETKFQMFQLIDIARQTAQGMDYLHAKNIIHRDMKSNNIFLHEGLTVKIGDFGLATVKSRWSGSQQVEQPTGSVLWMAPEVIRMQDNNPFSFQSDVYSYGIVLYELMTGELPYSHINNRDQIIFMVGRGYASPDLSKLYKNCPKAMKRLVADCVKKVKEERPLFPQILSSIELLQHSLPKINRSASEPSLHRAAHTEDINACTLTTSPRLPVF

[28] = test system: colon CSCs; assay: dose-response analysis on four colon CSCs; format: cell-based, human; settings: single agent, escalating doses, four colon CSC lines
Method: as §1, with “(v/v). Recombinant human Killer TRAIL was purchased from Alexis (San Diego, Calif., USA) while Geldanamycin, 17-AAG and 17-DMAG were purchased from Calbiochem (Nottingham, UK). All agents were diluted into fresh medium at the specified concentrations. Measure of cell viability was performed using CelltiterGlo® luminescent assay (Promega Corporation, Madison, Wis., USA) and luminescence was recorded on Beckman Coulter DTX880 multimode reader (Beckman Coulter Inc., Fullerton, Calif., USA) with an integration time of 100 ms.” for “(v/v).”

[29] = single agent, 5 μM, viability after 48 h, four colon CSC lines

In the case of `O=S(=O)(c1cccc2cnccc12)N1CCCNCC1` [HA-1077], the Ki [1] is listed as 36000 nM, the “effect on colon CSC proliferation / number versus DMSO controls” value [2, 29] is listed as “lead to significant proliferation” and the Ki [3] is listed as 1600 nM.

For `Oc1ccc(-c2nc(-c3ccncc3)c(-c3ccc(F)cc3)[nH]2)cc1` [SB 202190], the IC50 [4] is given as 80000 to 100000 nM, the IC50 [5] is given as 30000 to 42000 nM and the “effect on colon CSC proliferation / number versus DMSO controls” value [2, 29] is given as “lead to significant proliferation”. The IC50 [6] was 5300 nM.

For `Cc1ccc(S(=O)(=O)/C=C/C#N)cc1` [BAY 11-7082], the IC50 [7] is given as 10000 nM.

In the case of `C=CCNC1=C2C[C@@H](C)C[C@H](OC)[C@H](O)[C@@H](C)/C=C(\C)[C@H](OC(N)=O)[C@@H](OC)/C=C\C=C(/C)C(=O)NC(=CC1=O)C2=O` [17-AAG, 17-Allylamino-17-demethoxygeldanamycin], the “sensitization of tumor cell lines to TRAIL” value [8] is given as “sensitizes colon cancer cell lines; also recorded: TRAIL resistance can be overcome” and the “effect of combination with TRAIL on normalized viability” value [9] is given as “synergistic effect; also recorded: rapidly (24 h) sensitized to TRAIL treatment”.

For `Nc1ncnc2c1c(I)cn2[C@@H]1O[C@H](CO)[C@@H](O)[C@H]1O` [5-Iodotubercidin], the IC50 [10] is given as 400 to 28000 nM and the “effect on colon CSC proliferation / number versus DMSO controls” value [2, 29] is given as “significantly lead to a reduction in colon CSC numbers”.

In the case of `COc1cc2ncc(-c3ccccc3)nc2cc1OC` [AG 1296], the IC50 [11] is given as 1000 nM, the IC50 [12] is given as 800 nM and the inhibition [13] is given as “c-kit (80% inhibition at 5 μM)”.

With `CO[C@H]1/C=C\C=C(/C)C(=O)NC2=CC(=O)C(NCCN(C)C)=C(C[C@@H](C)C[C@H](OC)[C@H](O)[C@@H](C)/C=C(\C)[C@@H]1OC(N)=O)C2=O` [17-DMAG, 17-dimethylaminoethylamino-17-demethoxy-geldanamycin] the “sensitivity of the TRAIL-resistant colon CSC line to single agent” value [14] was “sensitive”.

In the case of `Cn1cc(C2=C(c3cn(CCCSC(=N)N)c4ccccc34)C(=O)NC2=O)c2ccccc21` [Ro-31-8220], the IC50 [15] is listed as 17000 nM, the IC50 [16] is listed as 10 nM and the IC50 [17] is listed as 6.8 nM. For the same molecule, the “effect on colon CSC proliferation / number versus DMSO controls” value [2, 29] was “significantly lead to a reduction in colon CSC numbers”, the IC50 [18] was 900 nM and the IC50 [19] was 2.8 nM.

In the case of `CN([C@@H](Cc1ccc(OS(=O)(=O)c2cccc3cnccc23)cc1)C(=O)N1CCN(c2ccccc2)CC1)S(=O)(=O)c1cccc2cnccc12` [KN-62], the Ki [20] is given as 900 nM.

For `CC(=O)c1c(O)c(C)c(O)c(Cc2c(O)c3c(c(C(=O)/C=C/c4ccccc4)c2O)OC(C)(C)C=C3)c1O` [Rottlerin], the “effect on colon CSC proliferation / number versus DMSO controls” value [2, 29] is listed as “significantly lead to a reduction in colon CSC numbers” and the IC50 [21] is listed as 3000 to 6000 nM.

In the case of `CC(C)(C)c1cc(C=C(C#N)C#N)cc(C(C)(C)C)c1O` [AG 17], the IC50 [22] is given as 500 nM and the “effect on colon CSC proliferation / number versus DMSO controls” value [2, 29] is given as “significantly lead to a reduction in colon CSC numbers”.

In the case of Indirubin-3′-monoxime, the IC50 [23] is given as 100 nM.

For `COc1ccc(S(=O)(=O)N(CCO)c2ccccc2CN(C)C/C=C/c2ccc(Cl)cc2)cc1` [KN-93], the Ki [15] is listed as 370 nM.

In the case of `Cc1ccc(NC(=O)c2cccc(N(C)C)c2)cc1NC(=O)c1ccc(O)cc1` [ZM 336372], the “inhibition of many other protein kinases” value [24] is given as “potency compared to B-Raf, but does not inhibit many other”, the IC50 [25] is given as 2000 nM and the IC50 [26] is given as 2000 nM. For the same molecule, the “increased potency on c-Raf compared to B-Raf” value [27] was “ten-fold” and the “effect on colon CSC proliferation / number versus DMSO controls” value [2] was “lead to significant proliferation”.

B1: TRAIL: Tumor necrosis factor-related apoptosis-inducing ligand; recombinant human Killer TRAIL from Alexis (protein, UniProt P50591 1-281, looked up)
Tumor necrosis factor ligand …: MAMMEVQGGPSLGQTCVLIVIFTVLLQSLCVAVTYVYFTNELKQMQDKYSKSGIACFLKEDDSYWDPNDEESMNSPCWQVKWQLRQLVRKMILRTSEETISTVQEKQQNISPLVRERGPQRVAAHITGTRGRSNTLSSPNSKNEKALGRKINSWESSRSGHSFLSNLHLRNGELVIHEKGFYYIYSQTYFRFQEEIKENTKNDKQMVQYIYKYTSYPDPILLMKSARNSCWSKDAEYGLYSIYQGGIFELKENDRIFVSVTNEHLIDMDHEASFFGAFLVG
With B1 the “resistance of colon CSCs to treatment alone” value [28] was “One out of four colon CSCs is resistant”.
